# Measurements reported in patent publication US20230265048A1, “NOVEL SPHINGOLIPID CONTAINING BRANCHED-CHAIN FATTY ACID AND USE THEREOF” (SOLUS BIOTECH CO., LTD., priority 2020, published 2023).
# Columns and labels:
# [1] = Test Example 3: Solubility in oils and polyols; format: physicochemical; parameters: key: −: Non-soluble; +: Soluble (recrystallization occurred after cooling to room temperature); ++: Very soluble (recrystallization did not occur after cooling to room temperature); conditions: heated at 80° C., cooled to room temperature
# Description: The ceramides of Example 4, Comparative Example 1, and Comparative Example 2 were mixed with oils and polyols at 0.1 to 1.0 wt % relative to the solvent substance, and then heated with stirring at 80° C. and then cooled to room temperature.
# [2] = test system: skin erythema index on the cheek area; assay: Test Example 6: erythema relieving effect (Mexameter MX 18); format: in vivo, human
# Description: The branched chain fatty acid ceramide-containing formulation prepared in Example 6 was clinically tested for erythema relieving effect. Specifically, for erythema measurement, a total of 10 test subjects were subjected to application of the branched chain fatty acid ceramide-containing formulation prepared in Example 6 twice a day, and measured before use (Week 0), 1 week after use, and 2 weeks after use by an instrument. The skin erythema index on the cheek area was measured using Mexameter MX 18 of Courage+Khazaka (C-K) (Cologne, Germany).
compound,measurement,setting,value
"CCCCCCCC/C=C\CCCCCCCC(=O)N[C@@H](CO)[C@H](O)/C=C/CCCCCCCCCCCCC [Comparative Example 2, Oleoyl ceramide, reference compound]",Solubility,"[1]; Butylene glycol, 0.1%",+
same,Solubility,"[1]; Butylene glycol, 0.5%",+
same,Solubility,"[1]; Caprylic/capric triglyceride, 0.1%",−
same,Solubility,"[1]; Caprylic/capric triglyceride, 0.5%",−
same,Solubility,"[1]; Cetyl ethyl hexanoate, 0.1%",−
same,Solubility,"[1]; Cetyl ethyl hexanoate, 0.5%",−
same,Solubility,"[1]; Dipropylene glycol, 0.1%",+
same,Solubility,"[1]; Dipropylene glycol, 0.5%",−
same,Solubility,"[1]; Glycerin, 0.1%",−
same,Solubility,"[1]; Glycerin, 0.5%",−
same,Solubility,"[1]; Macadamia ternifolisa seed oil, 0.1%",−
same,Solubility,"[1]; Macadamia ternifolisa seed oil, 0.5%",−
same,Solubility,"[1]; Propylene glycol, 0.1%",−
same,Solubility,"[1]; Propylene glycol, 0.5%",−
same,Erythema (skin erythema index),[2]; Week 0 (before use),261.53 ± 10.82
same,Erythema (skin erythema index),"[2]; Week 1, applied twice a day",236.2 ± 11.578
same,Erythema (skin erythema index),"[2]; Week 2, applied twice a day",213.47 ± 11.518
